# Experimental data taken from patent US20230064324A1, “NEW USES FOR STEVIOL” (SUNTORY HOLDINGS LIMITED, priority 2019, published 2023).
# Like-named read-outs stand apart in the source and are kept apart here.
# Assays:
# [1] = system: CHOP; test: CHOP expression in neuronal cells under endoplasmic reticulum stress (RT-PCR); type: cell-based, Rat; conditions: pretreatment 1 h, tunicamycin 0.16 μM 24 h
# Description: (§1) Neuronal cells were prepared as follows. PC12 cells were reconstituted by seeding at 2×10^6 cells/flask to a collagen IV-coated flask, and precultured for 3 days in the growth medium in a CO2 incubator.
# (§2) The lysate was preserved at −80° C. until use.
# (§3) The internal standard gene used was GAPDH gene.
# [2] = system: CHOP; conditions: pretreatment 4 h, tunicamycin 0.65 μM 24 h
# Description: (§4) Steviol was evaluated for its influence on endoplasmic reticulum stress in each type of cell by using endoplasmic reticulum stress markers CHOP and GRP78 as an index. The test cells used were neuronal cells (induced from PC12 cells), adipocytes (normal human subcutaneous preadipocytes, Cat. No. PT-5020, Lonza Group AG), hepatocytes (HepG2, Cat. No. JCRB1054, JCRB) and pancreatic cells (βTC6, ATCC® CRL-11506).
# (§5) Hepatocytes were prepared as follow. HepG2 cells were seeded to a T75 flask and precultured for 1 day in a CO2 incubator using a growth medium (DMEM (high glucose, Cat. No. D5796, Sigma-Aldrich) supplemented with 10% FBS (Cat. No. 172012, Sigma-Aldrich), 1% penicillin-streptomycin (Cat. No. 09367-34, Nacalai Tesque, Inc.)).
# (§6) 4PA (P21005, Sigma-Aldrich Co., LLC) was dissolved in a medium and then added at a predetermined concentration to a differentiation medium or a growth medium.
# (§7) After the completion of endoplasmic reticulum stress induction treatment, the expression levels of CHOP and GRP78 were measured to evaluate the degree of endoplasmic reticulum stress. First, FasteLane lysate (RNA) was prepared for RNA extraction using FastLane Cell Probe kit (Cat. No. 216413, Qiagen N.V.). After removal of the medium, each well was washed by the addition of 125 μL of Buffer FCW and its immediate removal. Then, 50 μL of Cell processing mix was added to each well, followed by incubation at room temperature for 5 minutes to prepare FasteLane lysate. Next, the FasteLane lysate was transferred to a PCR tube and incubated at 75° C. for 5 minutes. The lysate was preserved at −80° C. until use.
# (§8) Gene expression analysis was carried out by the following procedures. One Step real-time RT-PCR was performed with the composition of Table 8 using QuantiTect Probe RT-PCR Kit attached to FastLane Cell Probe kit.
# (§9) RT-PCR reaction was performed under conditions of 50° C. for 30 minutes, 95° C. for 15 minutes, and (94° C. for 15 seconds and 60° C. for 60 seconds)×40 cycles. The internal standard gene used was GAPDH gene. A relative expression level was calculated by the ΔΔCt method. Significant difference among tunicamycin addition groups (vehicle group vs positive control group/steviol addition group) was tested by the Dunnett test.
# [3] = system: GRP78; conditions: pretreatment 4 h, tunicamycin 0.65 μM 24 h
# Description: as §4, §5, §6, §7, §8, §9
# [4] = system: GRP78; test: GRP78 expression in adipocytes under endoplasmic reticulum stress (RT-PCR); type: cell-based, Human; conditions: pretreatment 24 h, tunicamycin 0.65 μM 24 h
# Description: (§10) Adipocytes were prepared as follows. Normal human subcutaneous preadipocytes were reconstituted in a T75 flask using a growth medium (PBM-2 medium, Cat. No. PT-8002, Lonza, supplemented with 10% FBS, 2 mM L-glutamine, 50 μg/mL gentamycin, and 37 ng/mL amphotericin-B), and precultured for 3 days in a CO2 incubator (37° C., 5% CO2; the same holds true for the description below).
# as §2, §3
# [5] = system: CHOP; test: CHOP expression in pancreatic cells (βTC6) under endoplasmic reticulum stress (RT-PCR); type: cell-based, Mouse; conditions: pretreatment 4 h, tunicamycin 0.16 μM 24 h
# Description: as §2, §3
# [6] = system: GRP78; test: GRP78 expression in neuronal cells under endoplasmic reticulum stress (RT-PCR); type: cell-based, Rat; conditions: pretreatment 24 h, tunicamycin 1.0 μM 24 h
# Description: as §1, §2, §3
# [7] = system: CHOP; test: CHOP expression in adipocytes under endoplasmic reticulum stress (RT-PCR); type: cell-based, Human; conditions: pretreatment 24 h, tunicamycin 0.65 μM 24 h
# Description: as §10, §2, §3
# [8] = system: GRP78; test: GRP78 expression in pancreatic cells (βTC6) under endoplasmic reticulum stress (RT-PCR); type: cell-based, Mouse; conditions: pretreatment 4 h, tunicamycin 0.16 μM 24 h
# Description: as §2, §3
# [9] = system: PC12 cells (clone HS); test: Neurite elongation-promoting effect on PC12 cells (neurite length per cell, Operetta CLS); type: cell-based, Rat; conditions: positive control, 50 ng/mL NGF, 3 days, negative control=100%
# Description: PC12 cells (clone HS) were precultured using a growth medium in the same manner as in Example 1. […] The cells thus cultured were subjected to cell membrane staining using Cell Membrane Stain attached to Neurite Outgrowth Staining Kit (Thermo Fisher Scientific Inc.) and nuclear staining using Hoechst 33342 (Cat. No. H3570). Specifically, the medium was replaced with 100 μL of a fixative and staining solution (prepared by adding a 1/1000 amount each of Cell Membrane Stain (1000×) and Hoechst 33342 and a 1/25 amount of a formaldehyde solution (Cat. No. 061-00416, FUJIFILM Wako Pure Chemical Corp.) to DPBS (++) (Cat. No. 14040133, Thermo Fisher Scientific Inc.)), followed by incubation for 20 minutes in a CO2 incubator (5% CO2, 37° C., humid). […] Photographing and quantitative analysis were carried out using Operetta CLS (Perkin Elmer, Inc.), and a neurite length per cell was calculated. Nine fields of view at the center of each well were photographed using a 10× objective lens. A test medium supplemented with 50 ng/mL NGF was used as a positive control, and a vehicle control composed of a differentiation medium supplemented with 0.1% DMSO (final concentration) was used as a negative control.
compound,measurement,setting,value
"O=C(O)CCCc1ccccc1 [4PA, reference compound]","Expression level of CHOP in neuronal cells (relative to GAPDH, untreated=1)",[1]; 4PA 0.1 mM,6.04
same,"Expression level of CHOP in neuronal cells (relative to GAPDH, untreated=1)",[1]; 4PA 0.3 mM,5.87
same,"Expression level of CHOP in hepatocytes (relative to GAPDH, untreated=1)",[2]; 4PA 0.1 mM,3.23
same,"Expression level of CHOP in hepatocytes (relative to GAPDH, untreated=1)",[2]; 4PA 0.3 mM,2.79
same,"Expression level of CHOP in hepatocytes (relative to GAPDH, untreated=1)",[2]; 4PA 1 mM,2.13
same,"Expression level of GRP78 in hepatocytes (relative to GAPDH, untreated=1)",[3]; 4PA 0.1 mM,2.82
same,"Expression level of GRP78 in hepatocytes (relative to GAPDH, untreated=1)",[3]; 4PA 0.3 mM,2.49
same,"Expression level of GRP78 in hepatocytes (relative to GAPDH, untreated=1)",[3]; 4PA 1 mM,1.96
same,"Expression level of GRP78 in adipocytes (relative to GAPDH, untreated=1)",[4]; 4PA 0.1 mM,4.78
same,"Expression level of GRP78 in adipocytes (relative to GAPDH, untreated=1)",[4]; 4PA 1 mM,4.25
same,"Expression level of CHOP in pancreatic cells (relative to GAPDH, untreated=1)",[5]; 4PA 0.3 mM,2.53
same,"Expression level of CHOP in pancreatic cells (relative to GAPDH, untreated=1)",[5]; 4PA 1 mM,1.78
same,"Expression level of CHOP in pancreatic cells (relative to GAPDH, untreated=1)",[5]; 4PA 3 mM,1.71
same,"Expression level of CHOP in pancreatic cells (relative to GAPDH, untreated=1)",[5]; 4PA 10 mM,2.47
same,"Expression level of GRP78 in neuronal cells (relative to GAPDH, untreated=1)",[6]; 4PA 0.1 mM,19.72
same,"Expression level of GRP78 in neuronal cells (relative to GAPDH, untreated=1)",[6]; 4PA 0.3 mM,20.05
same,"Expression level of CHOP in adipocytes (relative to GAPDH, untreated=1)",[7]; 4PA 0.1 mM,3.52
same,"Expression level of CHOP in adipocytes (relative to GAPDH, untreated=1)",[7]; 4PA 1 mM,3.22
same,"Expression level of GRP78 in pancreatic cells (relative to GAPDH, untreated=1)",[8]; 4PA 0.3 mM,2.33
same,"Expression level of GRP78 in pancreatic cells (relative to GAPDH, untreated=1)",[8]; 4PA 1 mM,2.37
same,"Expression level of GRP78 in pancreatic cells (relative to GAPDH, untreated=1)",[8]; 4PA 3 mM,1.66
same,"Expression level of GRP78 in pancreatic cells (relative to GAPDH, untreated=1)",[8]; 4PA 10 mM,1.22
"IGF-1: positive control, 100 ng/mL IGF-1 (Cat. No. SRP4121, Sigma-Aldrich)","Expression level of CHOP in neuronal cells (relative to GAPDH, untreated=1)",[1]; IGF-1 100 ng/mL,5.97
same,"Expression level of GRP78 in neuronal cells (relative to GAPDH, untreated=1)",[6]; IGF-1 100 ng/mL,19.77
"NGF: positive control, 50 ng/mL NGF (Cat. No. 13257019, Thermo Fisher Scientific), differentiation inducer",Relative neurite length (%),[9],269.4%
